Source: US20250066358A1, “Inhibitors of Menin-MLL Interaction” (Bala Therapeutics, Inc., priority 2021, published 2025)

Legend:
[1] = target: T1, recombinant MEN1 protein and fluorescein-labeled MLL4-43 peptide (Homo sapiens, UniProt O00255); test: Primary fluorescence polarization assay of MEN1 / MLL4-43 interaction inhibition; assay type: binding; conditions: MEN1 10 nM, MLL4-43 0.5 nM, 1 hour at room temperature
T1 construct: purchased Creativebiomart MEN1-35H
T1 sequence (O00255 1-610): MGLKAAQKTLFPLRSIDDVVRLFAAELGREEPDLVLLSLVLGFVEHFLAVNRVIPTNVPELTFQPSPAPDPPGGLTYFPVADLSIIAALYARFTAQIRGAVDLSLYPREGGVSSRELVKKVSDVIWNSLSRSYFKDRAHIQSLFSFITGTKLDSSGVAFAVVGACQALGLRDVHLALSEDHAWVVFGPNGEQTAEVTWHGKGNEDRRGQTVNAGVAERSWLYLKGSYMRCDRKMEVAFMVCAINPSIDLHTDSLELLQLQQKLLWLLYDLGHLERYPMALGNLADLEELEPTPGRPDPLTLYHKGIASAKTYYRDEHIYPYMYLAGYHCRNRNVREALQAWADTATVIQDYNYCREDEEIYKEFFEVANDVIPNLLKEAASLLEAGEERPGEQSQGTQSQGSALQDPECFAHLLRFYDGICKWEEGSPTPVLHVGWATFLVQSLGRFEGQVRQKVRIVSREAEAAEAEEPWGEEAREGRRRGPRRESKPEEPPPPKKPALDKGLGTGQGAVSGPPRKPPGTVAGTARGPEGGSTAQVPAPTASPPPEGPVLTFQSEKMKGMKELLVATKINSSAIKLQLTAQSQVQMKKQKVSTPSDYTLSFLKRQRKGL
Experimental: Compound activity was determined using recombinant MEN1 protein (Creativebiomart, Cat #MEN1-35H) and a custom fluorescein-labeled MLL4-43 peptide (Eton Bioscience Inc.). Interaction between MEN1 and MLL4-43 in the presence of compounds was determined by fluorescence polarization assay using a Microplate Reader ClarioStar Plus. The reaction was carried out in assay buffer (50 mM TRIS-HCl PH 7.4-7.6, 50 mM NaCl, 1 mM DTT, 0.1 mg/ml BSA). The compounds were dispensed on a 384 well Diamond Well Plate (Axigen, Cat #P-384-120 SQ-C—S) using the Biomek FX liquid handling system at 100× solutions of compounds in DMSO. 2× MEN1 mix (final concentration of MEN1 10 nM) was prepared in Assay buffer and 10 μl of mixture per well was added into 384w white Reaction plate with NBS(Corning, Cat #4513). 10 μl of Assay buffer w/o MENI was used for negative control. Plates were centrifuged for 1 min at 100 g. Next step the Compounds were added to Reaction plate using Biomek station via following steps: 3 μl of 100× compounds (in DMSO) were mixed thoroughly with 27 μl Assay Buffer, then 2 μl of this mixture was added to Reaction plate with 10 μl of MENI mix. Plates were centrifuged for 1 min at 100 g and incubated for 20 min at room temperature. Next 8 μL of MLL4-43 peptide per well was added to final concentration of MLL 0.5 nM. Plates were incubated for 1 hour at room temperature. Then fluorescence polarization was measured using Microplate Reader.

[2] = test system: MV4-11; test: MV4-11 Cellular Growth Inhibition Assay (CellTiter-Glo); assay type: cell-based; conditions: Homo sapiens, 168 h, MV4-11 cells, 7 days of incubation
Experimental: (§1) HEK293 (Institute of Cytology Russian Academy of Science), MV4-11 (ATCC, CRL-9591), MOLM-13 (AcceGen, ABC-TC517S) were seeded at a density of 500 cells per well (HEK293) and 2000 cells per well (MV4-11, MOLM-13) in a 384-well clear bottom plate (Greiner Cat #781090) in 45 μl total volume of DMEM (PanEco, Cat #C420, Russia) or RPMI (PanEco, Cat #C330, Russia) with 10% FBS(HyClone Cat #SV30160.03). HEK293 were allowed to adhere overnight at 37° C., 5% CO2. 500× compounds solutions in DMSO (Sigma Cat #D2650) were prepared into Cmpnds plate (Diamond Well Plate, Axigen, Cat #P-384-120 SQ-C—S) and DMSO only control was included. 1 μl of 500× compounds (Cmpnds plate) was added to 49 μl of culture medium into Dilution plate (Diamond Well Plate, Axigen, Cat #P-384-120 SQ-C—S), mixed and then 5 μl of 10× compounds solutions were transferred to cells followed by centrifugation at 100 g for 1 min. Final DMSO concentration was 0.2%. After 3 days of incubation, 10 μl of 1× compounds were added to cells. After 7 days of incubation, 12 μl of CellTiter-Glo (Promega, CAT #G7572) were added to the cells, plate was centrifuged at 100 g for 1 min and luminescence signal was measured using Microplate Reader (CLARIOStar).

[3] = test system: MOLM-13; test: MOLM-13 Cellular Growth Inhibition Assay (CellTiter-Glo); assay type: cell-based; conditions: Homo sapiens, 168 h, MOLM-13 cells, 7 days of incubation
Experimental: as §1

[4] = HEK293 Cellular Growth Inhibition Assay (CellTiter-Glo); assay type: cell-based; conditions: human, HEK293 cells, 7 days of incubation
Experimental: as §1

SMILES | EC50 [1] | CC50 [2] | CC50 [3] | CC50 at 7 days [4]
CCS(=O)(=O)N[C@H]1CC[C@H](CN2CCC3(CC2)CN(c2ncnc4ccc(CC(F)(F)F)cc24)C3)CC1 [Compound 5, N-((1R,4R)-4-((2-(6-(2,2,2-trifluoroethyl)quinazolin-4-yl)-2,7-diazaspiro[3.5]nonan-7-yl)methyl)cyclohexyl)ethanesulfonamide] | ≤ 0.075 µM | ≤ 1 µM | 1 to 5 µM | 5 to 15 µM
CCS(=O)(=O)N[C@H]1CC[C@H](CN2CCC3(CC2)CN(c2ncnc4ncc(CC(F)(F)F)cc24)C3)CC1 [Compound 65, N-(1R,4R)-[4-[[2-[6-(2,2,2-trifluoroethyl)pyrido[2,3-d]pyrimidin-4-yl]-2,7-diazaspiro[3.5]nonan-7-yl]methyl]cyclohexyl]ethanesulfonamide] | 0.075 to 0.5 µM | 1 to 2.5 µM | 1 to 5 µM | > 50 µM
CCS(=O)(=O)Nc1ccc(CN2CCC3(CC2)CN(c2ncnc4ncccc24)C3)cc1 [Compound 24, N-[4-[(2-pyrido[2,3-d]pyrimidin-4-yl-2,7-diazaspiro[3.5]nonan-7-yl)methyl]phenyl]ethanesulfonamide] | > 5 µM |  |  | 
CCS(=O)(=O)Nc1ccc(CN2CCC3(CC2)CCN(c2ncnc4cc(CC(F)(F)F)ccc24)CC3)cc1 [Compound 2] | > 5 µM | > 10 µM |  | 15 to 30 µM
CCS(=O)(=O)N[C@H]1CC[C@H](Cn2cc(CNc3ncnc4ccc(CC(F)(F)F)cc34)nn2)CC1 [Compound 69, N-((1R,4R)-4-((4-(((6-(2,2,2-trifluoroethyl)quinazolin-4-yl)amino)methyl)-1H-1,2,3-triazol-1-yl)methyl)cyclohexyl)ethanesulfonamide] | > 5 µM | > 10 µM | 5 to 10 µM | 30 to 50 µM
CCS(=O)(=O)Nc1cccc(CN2CCC3(CC2)CN(c2ncnc4ccccc24)C3)c1 [Compound 23, N-(3-((2-(quinazolin-4-yl)-2,7-diazaspiro[3.5]nonan-7-yl)methyl)phenyl)ethanesulfonamide] | > 5 µM |  |  | 
CCS(=O)(=O)N[C@H]1CC[C@H](CN2CCC3(CC2)CN(c2ncnc4ccc(CCc5nc(C)no5)cc24)C3)CC1 [Compound 63, N-((1R,4R)-4-((2-(6-(2-(3-methyl-1,2,4-oxadiazol-5-yl)ethyl)quinazolin-4-yl)-2,7-diazaspiro[3.5]nonan-7-yl)methyl)cyclohexyl)ethanesulfonamide] | 1 to 5 µM |  |  | 
CCS(=O)(=O)N[C@H]1CC[C@H](CN2CCC3(CC2)CCN(c2ncnc4cc(CC(F)(F)F)ccc24)CC3)CC1 [Compound 4, N-((1R,4R)-4-((9-(7-(2,2,2-trifluoroethyl)quinazolin-4-yl)-3,9-diazaspiro[5.5]undecan-3-yl)methyl)cyclohexyl)ethanesulfonamide] | 1 to 5 µM |  |  | 
CCS(=O)(=O)Nc1ccc(CN2CCC(Nc3ncnc4cc(CC(F)(F)F)ccc34)CC2)cc1 [Compound 33, N-(4-((4-((7-(2,2,2-trifluoroethyl)quinazolin-4-yl)amino)piperidin-1-yl)methyl)phenyl)ethanesulfonamide] | > 5 µM |  |  | 
CCS(=O)(=O)Nc1ccc(CN2CCC3(CC2)CN(c2ncnc4ccccc24)C3)cc1 [Compound 21, N-(4-((2-(quinazolin-4-yl)-2,7-diazaspiro[3.5]nonan-7-yl)methyl)phenyl)ethanesulfonamide] | > 5 µM |  |  | 
CCS(=O)(=O)Nc1ccc(CN2CCC3(CC2)CN(c2nc(NC)nc4ncccc24)C3)cc1 [Compound 31] | > 5 µM |  |  | 

Second part, led by results:

EC50 [1] | SMILES | CC50 [2] | CC50 [3] | CC50 at 7 days [4]
0.075 to 0.5 µM | CCS(=O)(=O)N[C@H]1CC[C@H](CNc2ccc(CN3CCC4(CC3)CN(c3ncnc5ccc(CC(F)(F)F)cc35)C4)cc2)CC1 [Compound 79, N-((1R,4R)-4-(((4-((2-(6-(2,2,2-trifluoroethyl)quinazolin-4-yl)-2,7-diazaspiro[3.5]nonan-7-yl)methyl)phenyl)amino)methyl)cyclohexyl)ethanesulfonamide] | > 10 µM | 1 to 5 µM | ≤ 5 µM
0.075 to 0.5 µM | CCS(=O)(=O)N1CCc2cc(CN3CCC4(CC3)CN(c3ncnc5ccc(CC(F)(F)F)cc35)C4)ccc2C1 [Compound 110, 4-(7-((2-(ethylsulfonyl)-1,2,3,4-tetrahydroisoquinolin-6-yl)methyl)-2,7-diazaspiro[3.5]nonan-2-yl)-6-(2,2,2-trifluoroethyl)quinazoline] |  |  | 
1 to 5 µM | Nc1ccc(CN2CCC3(CC2)CN(c2ncnc4ccc(CC(F)(F)F)cc24)C3)cc1C(=O)NCCN1CCOCC1 [Compound 91, 2-amino-N-(2-morpholinoethyl)-5-((2-(6-(2,2,2-trifluoroethyl)quinazolin-4-yl)-2,7-diazaspiro[3.5]nonan-7-yl)methyl)benzamide] | 2.5 to 5 µM | 10 to 20 µM | 5 to 15 µM
1 to 5 µM | CCS(=O)(=O)N1CCc2ccc(CN3CCC4(CC3)CN(c3ncnc5ccc(CC(F)(F)F)cc35)C4)cc2C1 [Compound 111, 4-(7-((2-(ethylsulfonyl)-1,2,3,4-tetrahydroisoquinolin-7-yl)methyl)-2,7-diazaspiro[3.5]nonan-2-y1)-6-(2,2,2-trifluoroethyl)quinazoline] |  |  | 
1 to 5 µM | CCS(=O)(=O)NC1CCc2cc(CN3CCC4(CC3)CN(c3ncnc5ccc(CC(F)(F)F)cc35)C4)cc(F)c2C1 (racemic) [Compound 77, rac-(R)-N-(8-fluoro-6-((2-(6-(2,2,2-trifluoroethyl)quinazolin-4-yl)-2,7-diazaspiro[3.5]nonan-7-yl)methyl)-1,2,3,4-tetrahydronaphthalen-2-yl)ethanesulfonamide] |  |  | 
> 5 µM | CCS(=O)(=O)Nc1ccc(CN2CCC3(CC2)CN(c2ncnc4ccc(CC(F)(F)F)cc24)C3)cc1C(=O)NCCN1CCOCC1 [Compound 92, 2-(ethylsulfonamido)-N-(2-morpholinoethyl)-5-((2-(6-(2,2,2-trifluoroethyl)quinazolin-4-yl)-2,7-diazaspiro[3.5]nonan-7-yl)methyl)benzamide] |  |  | 
> 5 µM | c1ccc(CCc2ccc3ncnc(N4CC5(CCNCC5)C4)c3c2)cc1 [Compound P148, 4-(2,7-Diazaspiro[3.5]non-2-yl)-6-(2-phenylethyl)quinazoline] |  |  | 
1 to 5 µM | N#Cc1cc(CN2CCC3(CC2)CN(c2ncnc4ccc(CC(F)(F)F)cc24)C3)ccc1F [Compound 102, 2-fluoro-5-((2-(6-(2,2,2-trifluoroethyl)quinazolin-4-yl)-2,7-diazaspiro[3.5]nonan-7-yl)methyl)benzonitrile] |  |  | 
1 to 5 µM | CCN(C[C@H]1CC[C@H](NS(=O)(=O)CC)CC1)c1ccc(CN2CCC3(CC2)CN(c2ncnc4ccc(CC(F)(F)F)cc24)C3)cc1 [Compound 100, N-((1R,4R)-4-((ethyl(4-((2-(6-(2,2,2-trifluoroethyl)quinazolin-4-yl)-2,7-diazaspiro[3.5]nonan-7-yl)methyl)phenyl)amino)methyl)cyclohexyl)ethanesulfonamide] |  |  | 
